System: 857933-349-R-J2-PDC complex spheroids, viability
Test: Anticancer human tumor 857933-349-R-J2-PDC patient-derived colon adenocarcinoma cell line growth inhibition [GQUAD]
Settings: for IC50: curve of first compound; for viability, T/C: stronger effect = lower value; active = viability on the fitted dose curve at most 10% of control; inactive = the rest
Method in brief: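 Multi-cell-type spheroids of tumor cells with HUVEC and mesenchymal stem cells, treated with drug combinations. Concentrations descend in half-log steps from near clinical Cmax, or from 10 microM where Cmax is unknown; viability read-out.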

[1] = second compound 0.0316 µM, first compound 0.0316 µM
[2] = second compound 0.0316 µM, first compound 0.1 µM
[3] = second compound 0.0316 µM, first compound 0.316 µM
[4] = second compound 0.0316 µM, first compound 1 µM
[5] = second compound 0.0316 µM, first compound 3.16 µM
[6] = second compound 0.0316 µM, first compound 10 µM
[7] = second compound 0.1 µM, first compound 0.0316 µM
[8] = second compound 0.1 µM, first compound 0.1 µM
[9] = second compound 0.1 µM, first compound 0.316 µM
[10] = second compound 0.1 µM, first compound 1 µM
[11] = second compound 0.1 µM, first compound 3.16 µM
[12] = second compound 0.1 µM, first compound 10 µM
[13] = second compound 0.316 µM, first compound 0.0316 µM
[14] = second compound 0.316 µM, first compound 0.1 µM
[15] = second compound 0.316 µM, first compound 0.316 µM
[16] = second compound 0.316 µM, first compound 1 µM
[17] = second compound 0.316 µM, first compound 3.16 µM
[18] = second compound 0.316 µM, first compound 10 µM
[19] = second compound 1 µM, first compound 0.0316 µM
[20] = second compound 1 µM, first compound 0.1 µM
[21] = second compound 1 µM, first compound 0.316 µM
[22] = second compound 1 µM, first compound 1 µM
[23] = second compound 1 µM, first compound 3.16 µM
[24] = second compound 1 µM, first compound 10 µM
[25] = second compound 3.16 µM, first compound 0.0316 µM
[26] = second compound 3.16 µM, first compound 0.1 µM
[27] = second compound 3.16 µM, first compound 0.316 µM
[28] = second compound 3.16 µM, first compound 1 µM
[29] = second compound 3.16 µM, first compound 3.16 µM
[30] = second compound 3.16 µM, first compound 10 µM
[31] = second compound 10 µM, first compound 0.0316 µM
[32] = second compound 10 µM, first compound 0.1 µM
[33] = second compound 10 µM, first compound 0.316 µM
[34] = second compound 10 µM, first compound 1 µM
[35] = second compound 10 µM, first compound 3.16 µM
[36] = second compound 10 µM, first compound 10 µM
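Note: spheroids exposed to compounds for one week before readout.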
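Throughout, for viability, T/C: percent viability relative to vehicle DMSO wells taken as 100%.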

C=CCn1c(=O)c2cnc(Nc3ccc(N4CCN(C)CC4)cc3)nc2n1-c1cccc(C(C)(C)O)n1 + Cc1[nH]c2ccc(F)cc2c1-c1nc2c3cccnc3c3ncccc3c2[nH]1
1920 nM: IC50 (second compound 0.1 µM)
1470 nM: IC50 (second compound 0.316 µM)
960 nM: IC50 (second compound 3.16 µM)
1390 nM: IC50 (second compound 10 µM)
1930 nM: IC50 (second compound 0.0316 µM)
inactive: viability, T/C [1] 107% | viability, T/C [2] 99.1% | viability, T/C [3] 94.5% | viability, T/C [4] 77% | viability, T/C [5] 28.8% | viability, T/C [6] 27.8% | viability, T/C [7] 105% | viability, T/C [8] 104% | viability, T/C [9] 97.2% | viability, T/C [10] 81.5% | viability, T/C [11] 25.4% | viability, T/C [12] 24% | viability, T/C [13] 107% | viability, T/C [14] 98.1% | viability, T/C [15] 94% | viability, T/C [16] 62.7% | viability, T/C [17] 24.2% | viability, T/C [18] 26% | viability, T/C [19] 98.5% | viability, T/C [20] 86.1% | viability, T/C [21] 86% | viability, T/C [22] 63.4% | viability, T/C [23] 29.6% | viability, T/C [24] 23.9% | viability, T/C [25] 94.8% | viability, T/C [26] 76% | viability, T/C [27] 78.1% | viability, T/C [28] 48.7% | viability, T/C [29] 27.8% | viability, T/C [30] 24.5% | viability, T/C [31] 86.1% | viability, T/C [32] 77.8% | viability, T/C [33] 75.3% | viability, T/C [34] 58.7% | viability, T/C [35] 30% | viability, T/C [36] 24.9%
1570 nM: IC50 (second compound 1 µM)

CC(C)(O)C1CCC(Nc2ccc3ncc(-c4cccc(C(F)(F)F)c4)n3n2)CC1 (centres undefined) + Cc1[nH]c2ccc(F)cc2c1-c1nc2c3cccnc3c3ncccc3c2[nH]1
657 nM: IC50 (second compound 3.16 µM)
673 nM: IC50 (second compound 0.316 µM)
761 nM: IC50 (second compound 0.0316 µM)
707 nM: IC50 (second compound 10 µM)
725 nM: IC50 (second compound 0.1 µM)
active: viability, T/C [5] 2.35% | viability, T/C [6] 2.26% | viability, T/C [11] 2.03% | viability, T/C [12] 1.93% | viability, T/C [17] 2.68% | viability, T/C [18] 2.19% | viability, T/C [23] 2.43% | viability, T/C [24] 1.82% | viability, T/C [29] 3.45% | viability, T/C [30] 2.02% | viability, T/C [35] 3.99% | viability, T/C [36] 2.51%
inactive: viability, T/C [1] 107% | viability, T/C [2] 95.8% | viability, T/C [3] 96.4% | viability, T/C [4] 35.7% | viability, T/C [7] 104% | viability, T/C [8] 97.8% | viability, T/C [9] 93% | viability, T/C [10] 33.5% | viability, T/C [13] 104% | viability, T/C [14] 92% | viability, T/C [15] 87.3% | viability, T/C [16] 30.8% | viability, T/C [19] 93.4% | viability, T/C [20] 87.3% | viability, T/C [21] 87.5% | viability, T/C [22] 31.4% | viability, T/C [25] 87.3% | viability, T/C [26] 85.1% | viability, T/C [27] 79.5% | viability, T/C [28] 33.1% | viability, T/C [31] 86.6% | viability, T/C [32] 84.6% | viability, T/C [33] 81.7% | viability, T/C [34] 36.4%
682 nM: IC50 (second compound 1 µM)

Reference: PubChem BioAssay AID2060491 (Molecular Pharmacology Branch, DTP, NCI, 2025)
